From ChEMBL document CHEMBL1275362, “Synthesis of new antifungal peptides selective against Cryptococcus neoformans” (2010)
Converted amounts (≈) assume the structure as drawn. Starred links: 1 amine or outer side, 2 acyl side, 3 side chain; linkers in the order of their positions; H or OH if unused. Non-standard residues stand in square brackets, D forms with d. Residues, ends and D or L forms follow the SMILES beside them. X1 = O=C([C@H](CC1=NC=NC1)N[*:1])[*:2]

How the values were obtained:
Type in all cases: functional
Pichia kudriavzevii = assay: Antifungal activity against Candida krusei after 48 hrs by broth microdilution method
Cryptococcus neoformans [1] = assay: Antifungal activity against Cryptococcus neoformans H99 after 72 hrs by broth microdilution method; details: H99, 72 h
Cryptococcus neoformans [2] = assay: Antifungal activity against Cryptococcus neoformans ATCC 52817 after 72 hrs by broth microdilution method; details: ATCC 52817, 72 h
Nakaseomyces glabratus = assay: Antifungal activity against Candida glabrata after 48 hrs by broth microdilution method
Candida albicans = assay: Antifungal activity against Candida albicans after 48 hrs by broth microdilution method
Candida parapsilosis = assay: Antifungal activity against Candida parapsilosis after 48 hrs by broth microdilution method; details: Lodderomyces parapsilosis
Candida tropicalis = assay: Antifungal activity against Candida tropicalis after 48 hrs by broth microdilution method

| Compound | MIC (Pichia kudriavzevii) [µg/mL] | MIC90 (Pichia kudriavzevii) [µg/mL] | MIC (Cryptococcus neoformans [1]) [µg/mL] | MIC90 (Cryptococcus neoformans [1]) [µg/mL] | MIC (Cryptococcus neoformans [2]) [µg/mL] | MIC (Nakaseomyces glabratus) [µg/mL] | MIC90 (Nakaseomyces glabratus) [µg/mL] | MIC (Candida albicans) [µg/mL] | MIC90 (Candida albicans) [µg/mL] | MIC (Candida parapsilosis) [µg/mL] | MIC90 (Candida parapsilosis) [µg/mL] | MIC (Candida tropicalis) [µg/mL] | MIC90 (Candida tropicalis) [µg/mL] |
| --- | --- | --- | --- | --- | --- | --- | --- | --- | --- | --- | --- | --- | --- |
| N=C(N)NCCC[C@H](NC(=O)[C@H](Cc1c[nH]c2ccccc12)NC(=O)[C@H](Cc1c[nH]c2ccccc12)NC(=O)[C@H](CCCNC(=N)N)NC(=O)[C@H](CCCNC(=N)N)NC(=O)[C@H](CC1=NC=NC1)NC(=O)CNC(=O)[C@@H](N)Cc1c[nH]cn1)C(=O)N[C@@H](Cc1ccccc1)C(=O)O (H-HG[X1]RRWWRF-OH) | 256 (≈ 191 µM) | 512 (≈ 383 µM) | 8 (≈ 5.98 µM) | 16 (≈ 12 µM) | 8 (≈ 5.98 µM) | 256 (≈ 191 µM) | > 512 | 256 (≈ 191 µM) | > 512 | > 512 | 512 (≈ 383 µM) | 256 (≈ 191 µM) | > 512 |
| N=C(N)NCCC[C@@H]1NC(=O)[C@H](CCCNC(=N)N)NC(=O)[C@H](Cc2c[nH]c3ccccc23)NC(=O)[C@H](Cc2c[nH]c3ccccc23)NC(=O)[C@H](CCCNC(=N)N)NC(=O)[C@H](Cc2ccccc2)NC(=O)[C@H](Cc2c[nH]cn2)NC1=O (cyclo(FRWWRRH)) | 32 (≈ 28.4 µM) | 64 (≈ 56.9 µM) | 4 (≈ 3.55 µM) | 8 (≈ 7.11 µM) | 8 (≈ 7.11 µM) | 64 (≈ 56.9 µM) | 256 (≈ 227 µM) | 64 (≈ 56.9 µM) | 256 (≈ 227 µM) | 64 (≈ 56.9 µM) | 128 (≈ 114 µM) | 64 (≈ 56.9 µM) | 256 (≈ 227 µM) |
| N=C(N)NCCC[C@@H]1NC(=O)[C@H](CCCNC(=N)N)NC(=O)[C@H](Cc2c[nH]c3ccccc23)NC(=O)[C@H](Cc2c[nH]c3ccccc23)NC(=O)[C@H](CCCNC(=N)N)NC(=O)[C@H](Cc2ccccc2)NC(=O)[C@H](Cc2c[nH]cn2)NC(=O)CNC(=O)[C@H](Cc2c[nH]cn2)NC1=O (cyclo(FRWWRRHGH)) | 32 (≈ 24.3 µM) | 64 (≈ 48.5 µM) | 2 (≈ 1.52 µM) | 4 (≈ 3.03 µM) | 4 (≈ 3.03 µM) | 64 (≈ 48.5 µM) | 256 (≈ 194 µM) | 32 (≈ 24.3 µM) | 128 (≈ 97 µM) | 32 (≈ 24.3 µM) | 128 (≈ 97 µM) | 32 (≈ 24.3 µM) | 128 (≈ 97 µM) |
| N=C(N)NCCC[C@@H]1NC(=O)[C@H](CCCNC(=N)N)NC(=O)[C@H](Cc2ccccc2)NC(=O)[C@H](CCCNC(=N)N)NC(=O)[C@H](Cc2c[nH]c3ccccc23)NC(=O)[C@H](Cc2c[nH]c3ccccc23)NC1=O (cyclo(RRWWRF)) | 32 (≈ 32.4 µM) | 512 (≈ 518 µM) | 4 (≈ 4.05 µM) | 64 (≈ 64.8 µM) | 8 (≈ 8.1 µM) | 128 (≈ 130 µM) | 512 (≈ 518 µM) | 128 (≈ 130 µM) | 512 (≈ 518 µM) | 32 (≈ 32.4 µM) | 128 (≈ 130 µM) | 128 (≈ 130 µM) | 512 (≈ 518 µM) |
| C[C@@H]1[C@H](O)[C@@H](C)/C=C/C=C/C=C/C=C/C=C/C=C/C=C/[C@H](O[C@@H]2O[C@H](C)[C@@H](O)[C@H](N)[C@@H]2O)C[C@@H]2O[C@](O)(C[C@@H](O)C[C@@H](O)[C@H](O)CC[C@@H](O)C[C@@H](O)CC(=O)O[C@H]1C)C[C@H](O)[C@H]2C(=O)O [AMPHOTERICIN B] | 0.03 (≈ 0.0325 µM) | 0.06 (≈ 0.0649 µM) | 0.125 (≈ 0.135 µM) | 0.25 (≈ 0.271 µM) | – | 0.03 (≈ 0.0325 µM) | 0.125 (≈ 0.135 µM) | 0.03 (≈ 0.0325 µM) | 0.125 (≈ 0.135 µM) | 0.06 (≈ 0.0649 µM) | 0.06 (≈ 0.0649 µM) | 0.03 (≈ 0.0325 µM) | 0.06 (≈ 0.0649 µM) |
| OC(Cn1cncn1)(Cn1cncn1)c1ccc(F)cc1F [FLUCONAZOLE] | 16 (≈ 52.2 µM) | 64 (≈ 209 µM) | 2 (≈ 6.53 µM) | 4 (≈ 13.1 µM) | – | 4 (≈ 13.1 µM) | 64 (≈ 209 µM) | 0.125 (≈ 0.408 µM) | 0.25 (≈ 0.816 µM) | 1 (≈ 3.27 µM) | 2 (≈ 6.53 µM) | 0.5 (≈ 1.63 µM) | 2 (≈ 6.53 µM) |
| H-HRRWWRF-OH | 128 | 256 | 8 | 16 | 16 | 128 | 512 | 128 | 512 | 128 | 256 | 128 | 512 |
| H-RRWWRF-OH | 128 | 512 | 16 | 64 | 16 | 128 | 512 | 128 | 512 | 64 | 128 | 128 | 512 |
